Patent EP0256125A1, “MEANS FOR PREVENTING MICROBIOLOGICAL OVERGROWING OF HARD SURFACE” (priority 1985, dated 1987)

What was measured:
Oidium = assay: Fungicidal activity, inhibition of mycelium growth on wort agar; assay type: cell-based
Excerpt: (§1) Man prüfte die funguzide Aktivität von Zink-bis-(N-vi- nyloxyethyl)dithiocarbamat gegenüber den reinen Pilzkulturen: Gladosporium resinae, Cladosporium cladosporioides, Acremonium corvum, Acremonium charticola, Penicillium charlesii Smith, Walrotiela subiculesa, Geotrichum candidum Link, Oidium, Penicillium crysogenum. Die genannten Pilze wurden von den Oberflächen der Wände und Decken von Bierbrauereien und Werken für die Herstellung von alkoholfreien Getränken ausgeschieden.
(§2) […] In eine der Petri-Schalen wurde Nährboden mit 1 ml Azeton (Kontrolle) gegossen.
(§3) In 18 bis 20 Stunden nach dem Vergießen des Nährbodens in die Petri-Schalen führte man die Inokulation der reinen Pilzkultur durch, die vorher an einem Schräg-Würzeagar während 15 Tage gezüchtet wurden. Die Inkubation führte man bei einer Temperatur von 25 bis 27°C während 5 Tage durch. Danach wurde der Durchmesser der Pilzkolonien gemessen und der Prozentsatz der Hemmung des Wachstums des Myzeliums (S) nach der Abbott -Formel gezählt: [formula] worin dc Durchmesser der Pilzkolonien in Kontrolle ist, de =Durchmesser der Pilzkolonien in einer Schale mit dem Nährboden ist, der Zink-bis-(N-vinyloxyethyl)dithiocarbamat enthält.

Acremonium charticola = assay: as above; assay type: cell-based; conditions: Acremonium charticola, 120 h, read-out: Hemmung des Myzeliums am 5. Tag des Wachstums, Acremonium charticola
Excerpt: as §1, §2, §3

[1] = test system: Cladosporium cladosporioides; assay: as above; assay type: cell-based; conditions: Cladosporium cladosporioides, 120 h, read-out: Hemmung des Myzeliums am 5. Tag des Wachstums, Cladosporium cladosporioides
Excerpt: as §1, §2, §3

Penicillium chrysogenum = assay: as above; assay type: cell-based
Excerpt: as §1, §2, §3

Walrotiela subiculesa = assay: as above; assay type: cell-based; conditions: 120 h, read-out: Hemmung des Myzeliums am 5. Tag des Wachstums, Walrotiela subiculesa
Excerpt: as §1, §2, §3

Acremonium corvum = assay: as above; assay type: cell-based; conditions: 120 h, read-out: Hemmung des Myzeliums am 5. Tag des Wachstums, Acremonium corvum
Excerpt: as §1, §2, §3

[2] = test system: Penicillium charlesii Smith; assay: as above; assay type: cell-based; conditions: Penicillium charlesii, 120 h, read-out: Hemmung des Myzeliums am 5. Tag des Wachstums, Penicillium charlesii Smith
Excerpt: as §1, §2, §3

Cladosporium resinae = assay: as above; assay type: cell-based; conditions: Amorphotheca resinae, 120 h, read-out: Hemmung des Myzeliums am 5. Tag des Wachstums, Cladosporium resinae
Excerpt: as §1, §2, §3

Geotrichum candidum Link = assay: as above; assay type: cell-based
Excerpt: as §1, §2, §3

Bakterien = assay: Bactericidal activity, summary over all tested bacteria; assay type: cell-based
Method: (§4) Die bakterizide Aktivität des Kalium N-(vinyloxyethyl)-dithiocarbamats gegenüber den Bakterien, die von der Oberfläche von Wänden und Decken der Produktionsräume von Brauereien und Fabriken zur Herstellunq von alkoholfreien Getränken ausgeschieden wurden und die zu p.p.Bacillus, Micrococcus, Pseudomonas, Escherichiae gehören, wurde geprüft.
(§5) Es wurden wäßrige Lösungen des genannten Stoffes verschiedener Konzentration hergestellt, die so berechnet wurde, daß bei Einführung von 1 ml der Lösung in 25 ml geschmolzenen agarisierten Nährboden (45-50°C) die Konzentration des Stoffes im Nährboden von 0,003 bis 0,5% betrug. In 18 bis 24 Stunden wurde auf die Oberfläche des Nährbodens 0,1 ml der wäßrigen Suspension der eintägigen reinen Bakterienkulturen aufgetragen, die am Fleisch-Pepton-Agar gezüchtet wurden. Die Suspension wurde gleichmäßig verteilt. In Kontrollschalen wurden 0,1 ml Wasser auf der Oberfläche des Närhbodens verteilt.
(§6) Die Inkubation führte man bei einer Temperatur von 37°C während 5 Tage durch.
(§7) Die effektive Wirkung des Stoffes wurde nach dem Auftreten des Bakterienwachstums an der Oberfläche des Nährbodens bewertet.

p.Micrococcus = assay: Bactericidal activity, growth on agar medium; assay type: cell-based; conditions: 37°C, 5 Tage
Method: as §4, §5, §6, §7

p.Pseudomonas = assay: Bactericidal activity, growth on agar medium; assay type: cell-based; conditions: 37°C, 5 Tage
Method: as §4, §5, §6, §7

p. Escherichiae = assay: Bactericidal activity, growth on agar medium; assay type: cell-based; conditions: 37°C, 5 Tage
Method: as §4, §5, §6, §7

p.Bacillus = assay: Bactericidal activity, growth on agar medium; assay type: cell-based; conditions: 37°C, 5 Tage
Method: as §4, §5, §6, §7

[3] = Solubility in solvents (qualitative)
[4] = Acute toxicity in white mice; conditions: mouse, in vivo, po
[5] = Storage stability (qualitative); assay type: physicochemical; conditions: result in words
[6] = Konzentration des Stoffes 0,0015 %
[7] = Konzentration des Stoffes 0,00075 %
[8] = Konzentration des Stoffes 0,003 %
[9] = Konzentration des Stoffes 0,006 %
[10] = Konzentration des Stoffes 0,012 %

In the case of C=COCCNC(=S)[S-].[K+] [Kalium-N-(vinyloxyethyl)dithiocarbamat], the inhibition of growth at 0.00075 % (Oidium; 120 h, Konzentration des Stoffes 0,00075 %, read-out: Hemmung des Myzeliums am 5. Tag des Wachstums, Oidium) is reported as 40%, the inhibition of growth at 0.003 % (Oidium; 120 h, Konzentration des Stoffes 0,003 %, read-out: Hemmung des Myzeliums am 5. Tag des Wachstums, Oidium) is reported as 100% and the inhibition of growth at 0.006 % (Oidium; 120 h, Konzentration des Stoffes 0,006 %, read-out: Hemmung des Myzeliums am 5. Tag des Wachstums, Oidium) is reported as 100%. The inhibition of growth at 0.012 % (Oidium; 120 h, Konzentration des Stoffes 0,012 %, read-out: Hemmung des Myzeliums am 5. Tag des Wachstums, Oidium) was 100%, the “Hemmung des Myzeliums am 5. Tag des Wachstums, Oidium” value (Oidium; [6]) was 96% and the inhibition of growth (Acremonium charticola; [7]) was 90%. It also gave an inhibition of growth at 0.0015 % (Acremonium charticola; [6]) of 100%, an inhibition of growth at 0.003 % (Acremonium charticola; [8]) of 100% and an inhibition of growth at 0.006 % (Acremonium charticola; [9]) of 100%. It also gave an inhibition of growth at 0.012 % (Acremonium charticola; [10]) of 100%, an inhibition of growth [1, 7] of 100% and an inhibition of growth at 0.0015 % [1, 6] of 100%. The inhibition of growth at 0.003 % [1, 8] was 100%, the inhibition of growth at 0.006 % [1, 9] was 100% and the inhibition of growth at 0.012 % [1, 10] was 100%. The “Hemmung des Myzeliums am 5. Tag des Wachstums, Penicillium chrysogenum” value (Penicillium chrysogenum; [6]) was 30%, the “Hemmung des Myzeliums am 5. Tag des Wachstums, Penicillium chrysogenum” value (Penicillium chrysogenum; [8]) was 55% and the inhibition of growth at 0.00075 % (Penicillium chrysogenum; Penicillium chrysogenum, 120 h, Konzentration des Stoffes 0,00075 %, read-out: Hemmung des Myzeliums am 5. Tag des Wachstums, Penicillium chrysogenum) was 0%. For the same compound, the inhibition of growth at 0.006 % (Penicillium chrysogenum; Penicillium chrysogenum, 120 h, Konzentration des Stoffes 0,006 %, read-out: Hemmung des Myzeliums am 5. Tag des Wachstums, Penicillium chrysogenum) was 90%, the inhibition of growth at 0.012 % (Penicillium chrysogenum; Penicillium chrysogenum, 120 h, Konzentration des Stoffes 0,012 %, read-out: Hemmung des Myzeliums am 5. Tag des Wachstums, Penicillium chrysogenum) was 100% and the inhibition of growth at 0.00075 % (Walrotiela subiculesa; [7]) was 90%. It also gave an inhibition of growth at 0.0015 % (Walrotiela subiculesa; [6]) of 100%, an inhibition of growth at 0.003 % (Walrotiela subiculesa; [8]) of 100% and an inhibition of growth at 0.006 % (Walrotiela subiculesa; [9]) of 100%. It also gave an inhibition of growth at 0.012 % (Walrotiela subiculesa; [10]) of 100%, an inhibition of growth (Acremonium corvum; [7]) of 94% and an inhibition of growth at 0.0015 % (Acremonium corvum; [6]) of 100%. The inhibition of growth at 0.003 % (Acremonium corvum; [8]) was 100%, the inhibition of growth at 0.006 % (Acremonium corvum; [9]) was 100% and the inhibition of growth at 0.012 % (Acremonium corvum; [10]) was 100%. The inhibition of growth [2, 7] was 5%, the inhibition of growth at 0.0015 % [2, 6] was 30% and the inhibition of growth at 0.003 % [2, 8] was 55%. It also gave an inhibition of growth at 0.006 % [2, 9] of 90%, an inhibition of growth at 0.012 % [2, 10] of 100% and an inhibition of growth (Cladosporium resinae; [7]) of 70%. The inhibition of growth at 0.0015 % (Cladosporium resinae; [6]) was 100%, the inhibition of growth at 0.003 % (Cladosporium resinae; [8]) was 100% and the inhibition of growth at 0.006 % (Cladosporium resinae; [9]) was 100%. For the same compound, the inhibition of growth at 0.012 % (Cladosporium resinae; [10]) was 100%, the inhibition of growth at 0.00075 % (Geotrichum candidum Link; Geotrichum candidum, 120 h, Konzentration des Stoffes 0,00075 %, read-out: Hemmung des Myzeliums am 5. Tag des Wachstums, Geotrichum candidum Link) was 10% and the inhibition of growth at 0.012 % (Geotrichum candidum Link; Geotrichum candidum, 120 h, Konzentration des Stoffes 0,012 %, read-out: Hemmung des Myzeliums am 5. Tag des Wachstums, Geotrichum candidum Link) was 100%. For the same compound, the “Hemmung des Myzeliums am 5. Tag des Wachstums, Geotrichum candidum Link” value (Geotrichum candidum Link; [6]) was 40%, the “Hemmung des Myzeliums am 5. Tag des Wachstums, Geotrichum candidum Link” value (Geotrichum candidum Link; [8]) was 100% and the “Hemmung des Myzeliums am 5. Tag des Wachstums, Geotrichum candidum Link” value (Geotrichum candidum Link; [9]) was 100%. The “Konzentration, die das Wachstum der Bakterien vollständig hemmte” value (Bakterien) was 0,05%, the “Konzentration der Salze der N-(vinyloxyethyl)dithiocarbaminsäure (100%), die das Wachstum der Bakterien am 5. Tag des Wachstums hemmen, p.Micrococcus” value (p.Micrococcus) was 0,05% and the “Konzentration der Salze der N-(vinyloxyethyl)dithiocarbaminsäure (100%), die das Wachstum der Bakterien am 5. Tag des Wachstums hemmen, p.Pseudomonas” value (p.Pseudomonas) was 0,05%. For the same compound, the “Konzentration der Salze der N-(vinyloxyethyl)dithiocarbaminsäure (100%), die das Wachstum der Bakterien am 5. Tag des Wachstums hemmen, p. Escherichiae” value (p. Escherichiae) was 0,05%, the “Konzentration der Salze der N-(vinyloxyethyl)dithiocarbaminsäure (100%), die das Wachstum der Bakterien am 5. Tag des Wachstums hemmen, p.Bacillus” value (p.Bacillus) was 0,05% and the “Löslichkeit im Alkohol” value ([3]; Alkohol (Ethylalkohol)) was “teilweise”. For the same compound, the “Löslichkeit im Azeton” value ([3]; Azeton) was “teilweise”, the “Löslichkeit im Diethylether” value ([3]; Diethylether) was “unlöslich” and the “Löslichkeit in Wasser” value ([3]; Wasser) was “gut löslich”. For the same compound, the LD50 [4] was 1400 ± 350 mg/kg and the Lagerbeständigkeit [5] was “lagerbeständig”.
